Calls of active or inactive are those of the source. No cut-off for these calls is given here.
How the values were obtained:
[1] = target: T1, Poly [ADP-ribose] polymerase tankyrase-2 (Homo sapiens, UniProt Q9H2K2); assay: Binding affinity to recombinant human N-terminal His-tagged TNKS2 (Ser959 to Gly1166 residues) expressed in Escherichia coli by surface plasmon resonance analysis
T1 sequence (Q9H2K2 whole entry): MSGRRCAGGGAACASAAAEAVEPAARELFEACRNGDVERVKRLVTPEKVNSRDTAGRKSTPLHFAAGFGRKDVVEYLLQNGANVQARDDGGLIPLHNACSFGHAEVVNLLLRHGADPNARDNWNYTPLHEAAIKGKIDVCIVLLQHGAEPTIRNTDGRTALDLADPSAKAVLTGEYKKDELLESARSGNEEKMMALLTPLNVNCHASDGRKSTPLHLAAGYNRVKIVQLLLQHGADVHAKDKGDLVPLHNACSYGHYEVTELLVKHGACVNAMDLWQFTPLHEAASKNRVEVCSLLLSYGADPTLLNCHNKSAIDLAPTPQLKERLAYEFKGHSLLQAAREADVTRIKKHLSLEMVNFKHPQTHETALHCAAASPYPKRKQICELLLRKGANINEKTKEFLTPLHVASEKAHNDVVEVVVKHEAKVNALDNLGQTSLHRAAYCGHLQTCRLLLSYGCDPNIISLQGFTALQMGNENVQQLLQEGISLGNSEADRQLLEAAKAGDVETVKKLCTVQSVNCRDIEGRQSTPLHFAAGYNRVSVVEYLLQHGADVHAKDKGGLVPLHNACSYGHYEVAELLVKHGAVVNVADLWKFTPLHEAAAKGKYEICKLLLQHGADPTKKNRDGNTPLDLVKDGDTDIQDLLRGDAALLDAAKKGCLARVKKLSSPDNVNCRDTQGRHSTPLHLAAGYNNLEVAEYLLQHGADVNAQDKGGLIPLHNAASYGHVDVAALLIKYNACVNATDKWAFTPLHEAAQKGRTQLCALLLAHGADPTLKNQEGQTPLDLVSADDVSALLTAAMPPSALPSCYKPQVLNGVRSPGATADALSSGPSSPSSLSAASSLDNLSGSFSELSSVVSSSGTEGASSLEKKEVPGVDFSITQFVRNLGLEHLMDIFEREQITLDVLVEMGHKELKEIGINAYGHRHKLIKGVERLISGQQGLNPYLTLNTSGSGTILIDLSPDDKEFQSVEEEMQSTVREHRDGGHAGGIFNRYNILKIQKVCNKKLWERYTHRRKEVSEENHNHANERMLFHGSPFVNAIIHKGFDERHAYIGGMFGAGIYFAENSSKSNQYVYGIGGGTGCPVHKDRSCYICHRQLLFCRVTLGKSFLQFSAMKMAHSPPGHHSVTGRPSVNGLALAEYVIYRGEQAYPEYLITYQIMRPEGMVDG

[2] = tested on: A549
Description: (§1) Growth inhibition of human A549 cells after 72 hrs by MTT assay

[3] = target: T2, Poly [ADP-ribose] polymerase tankyrase-1 (Homo sapiens, UniProt O95271); assay: Binding affinity to recombinant human N-terminal GSt-tagged TNKS1 (1000 to 1328 residues) expressed in baculovirus infected Sf9 cells by surface plasmon resonance analysis
T2 sequence (O95271 whole entry): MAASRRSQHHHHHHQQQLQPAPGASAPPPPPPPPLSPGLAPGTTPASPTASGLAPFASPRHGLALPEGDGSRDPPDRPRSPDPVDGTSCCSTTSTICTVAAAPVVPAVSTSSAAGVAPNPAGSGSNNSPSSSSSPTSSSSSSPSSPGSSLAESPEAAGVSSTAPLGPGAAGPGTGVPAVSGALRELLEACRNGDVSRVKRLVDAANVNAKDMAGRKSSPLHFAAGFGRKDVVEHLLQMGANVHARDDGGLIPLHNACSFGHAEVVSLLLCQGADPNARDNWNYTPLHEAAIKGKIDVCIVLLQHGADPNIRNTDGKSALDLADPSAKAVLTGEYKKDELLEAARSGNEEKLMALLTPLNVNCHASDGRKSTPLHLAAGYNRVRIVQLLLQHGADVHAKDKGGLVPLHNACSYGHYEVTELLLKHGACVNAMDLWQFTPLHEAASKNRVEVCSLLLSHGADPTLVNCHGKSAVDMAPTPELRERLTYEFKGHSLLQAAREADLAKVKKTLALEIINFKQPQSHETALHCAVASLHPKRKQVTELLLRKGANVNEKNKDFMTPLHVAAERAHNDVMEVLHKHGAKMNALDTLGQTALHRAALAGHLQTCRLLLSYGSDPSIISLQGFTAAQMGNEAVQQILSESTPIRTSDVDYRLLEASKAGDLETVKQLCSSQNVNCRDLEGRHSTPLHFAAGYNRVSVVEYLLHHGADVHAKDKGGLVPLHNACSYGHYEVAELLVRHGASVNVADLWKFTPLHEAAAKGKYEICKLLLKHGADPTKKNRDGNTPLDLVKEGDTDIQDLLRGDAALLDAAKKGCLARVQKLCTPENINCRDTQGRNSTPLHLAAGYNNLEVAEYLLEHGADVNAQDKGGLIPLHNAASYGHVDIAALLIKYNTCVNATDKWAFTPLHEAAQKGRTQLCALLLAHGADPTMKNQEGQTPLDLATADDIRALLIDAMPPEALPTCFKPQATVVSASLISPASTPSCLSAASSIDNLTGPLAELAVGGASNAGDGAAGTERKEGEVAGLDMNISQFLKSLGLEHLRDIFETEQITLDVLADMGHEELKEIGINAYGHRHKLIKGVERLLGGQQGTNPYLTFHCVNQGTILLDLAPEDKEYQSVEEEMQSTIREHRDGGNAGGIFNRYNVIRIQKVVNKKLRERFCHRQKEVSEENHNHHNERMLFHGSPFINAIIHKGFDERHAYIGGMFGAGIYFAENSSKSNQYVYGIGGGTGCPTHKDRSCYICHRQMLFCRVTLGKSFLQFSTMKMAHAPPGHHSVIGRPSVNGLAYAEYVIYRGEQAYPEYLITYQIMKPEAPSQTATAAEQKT

[4] = tested on: A549; assay: Antiproliferative activity against human A549 cells assessed as effect on cell viability at 100 uM after 72 hrs by MTT assay relative to control; type: functional
[5] = target: Poly [ADP-ribose] polymerase 1 (Homo sapiens, UniProt P09874); assay: Binding affinity to recombinant human PARP1 expressed in baculovirus infected Sf9 cells by surface plasmon resonance analysis
Poly [ADP-ribose] polymerase 1, sequence (P09874 whole entry): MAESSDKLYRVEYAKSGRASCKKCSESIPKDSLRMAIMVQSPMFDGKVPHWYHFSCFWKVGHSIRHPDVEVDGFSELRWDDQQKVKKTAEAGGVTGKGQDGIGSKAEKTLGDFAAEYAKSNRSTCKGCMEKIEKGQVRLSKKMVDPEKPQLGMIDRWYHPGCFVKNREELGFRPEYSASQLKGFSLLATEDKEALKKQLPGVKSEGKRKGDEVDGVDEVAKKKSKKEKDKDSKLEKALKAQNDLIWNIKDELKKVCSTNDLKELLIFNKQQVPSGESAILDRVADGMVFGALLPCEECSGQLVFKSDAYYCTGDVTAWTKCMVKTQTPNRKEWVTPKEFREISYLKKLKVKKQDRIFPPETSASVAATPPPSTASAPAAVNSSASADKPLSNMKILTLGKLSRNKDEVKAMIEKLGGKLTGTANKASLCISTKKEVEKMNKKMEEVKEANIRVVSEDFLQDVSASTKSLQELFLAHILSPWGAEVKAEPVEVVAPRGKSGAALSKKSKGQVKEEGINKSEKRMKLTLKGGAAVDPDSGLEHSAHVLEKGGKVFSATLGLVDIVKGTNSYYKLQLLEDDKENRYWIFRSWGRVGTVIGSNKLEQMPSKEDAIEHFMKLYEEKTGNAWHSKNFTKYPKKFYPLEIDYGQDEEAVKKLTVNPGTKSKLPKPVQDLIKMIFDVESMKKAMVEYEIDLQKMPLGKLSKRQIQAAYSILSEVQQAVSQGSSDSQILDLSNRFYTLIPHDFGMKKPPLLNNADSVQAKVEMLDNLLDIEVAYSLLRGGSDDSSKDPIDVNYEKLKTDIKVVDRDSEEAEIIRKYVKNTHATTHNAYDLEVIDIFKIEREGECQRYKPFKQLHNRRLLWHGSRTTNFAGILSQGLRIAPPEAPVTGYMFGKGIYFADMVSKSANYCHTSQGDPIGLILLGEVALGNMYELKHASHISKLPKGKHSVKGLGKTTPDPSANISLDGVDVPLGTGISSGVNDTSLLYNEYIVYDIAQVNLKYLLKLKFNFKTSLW

[6] = target: T3, Bromodomain-containing protein 9 (Homo sapiens) (UniProt Q9H8M2); assay: Binding affinity to BRD9 (unknown origin) by surface plasmon resonance analysis
T3 sequence (whole entry): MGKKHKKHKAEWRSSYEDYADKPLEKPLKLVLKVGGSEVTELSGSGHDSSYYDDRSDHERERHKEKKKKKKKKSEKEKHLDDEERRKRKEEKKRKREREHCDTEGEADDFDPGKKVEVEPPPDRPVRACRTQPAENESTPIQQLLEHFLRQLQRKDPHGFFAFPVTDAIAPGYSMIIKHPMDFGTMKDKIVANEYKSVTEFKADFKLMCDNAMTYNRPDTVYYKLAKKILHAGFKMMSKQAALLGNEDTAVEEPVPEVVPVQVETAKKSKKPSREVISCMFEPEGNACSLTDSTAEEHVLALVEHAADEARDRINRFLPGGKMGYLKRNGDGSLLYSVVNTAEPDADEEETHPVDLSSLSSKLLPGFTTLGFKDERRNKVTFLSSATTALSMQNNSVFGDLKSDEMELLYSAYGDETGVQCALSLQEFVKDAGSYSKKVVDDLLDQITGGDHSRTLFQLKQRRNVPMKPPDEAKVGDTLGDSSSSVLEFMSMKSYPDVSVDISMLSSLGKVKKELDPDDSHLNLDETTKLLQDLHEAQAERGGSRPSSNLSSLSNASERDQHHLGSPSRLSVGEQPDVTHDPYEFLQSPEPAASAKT

[7] = target: Casein kinase II alpha/beta (Homo sapiens, UniProt P67870+P68400); assay: Binding affinity to recombinant human CK2alpha/beta expressed in Escherichia coli by surface plasmon resonance analysis
Casein kinase II alpha/beta, sequence (P67870 whole entry): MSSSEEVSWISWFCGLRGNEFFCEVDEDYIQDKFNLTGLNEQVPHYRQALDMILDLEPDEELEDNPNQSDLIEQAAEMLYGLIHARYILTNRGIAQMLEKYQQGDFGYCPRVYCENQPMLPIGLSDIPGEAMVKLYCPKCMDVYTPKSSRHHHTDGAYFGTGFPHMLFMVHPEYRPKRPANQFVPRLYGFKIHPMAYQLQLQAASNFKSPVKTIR
Casein kinase II alpha/beta, sequence (P68400 whole entry): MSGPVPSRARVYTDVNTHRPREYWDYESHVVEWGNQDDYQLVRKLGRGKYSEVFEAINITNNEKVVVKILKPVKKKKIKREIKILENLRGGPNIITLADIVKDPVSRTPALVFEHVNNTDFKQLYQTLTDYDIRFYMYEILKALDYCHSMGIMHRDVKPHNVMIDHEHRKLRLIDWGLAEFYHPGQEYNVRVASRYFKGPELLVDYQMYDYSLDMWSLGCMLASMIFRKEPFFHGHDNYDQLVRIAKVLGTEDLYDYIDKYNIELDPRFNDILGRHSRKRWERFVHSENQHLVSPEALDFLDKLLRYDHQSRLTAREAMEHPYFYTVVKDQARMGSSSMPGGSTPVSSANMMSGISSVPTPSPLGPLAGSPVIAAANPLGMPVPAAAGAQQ

[8] = tested on: A549; assay: cells; details: Homo sapiens, A549, 72 h
Description: as §1

COc1cc(CCCOC(C)=O)cc(-c2cc(CCCOC(C)=O)cc(OC)c2O)c1O
Kd ([1]; read-out: Kd): 6.5 nM | IC50 [2]: Not Active | Kd ([3]; sf9): Not Active | Activity [4]: 20 - 30% | Kd ([5]; sf9): Not Active | Activity [6]: inactive | Kd [7]: Not Active

C=CCc1ccc(O)c(-c2cc(CC=C)cc(O)c2O)c1
Kd [1]: Not Active | Kd ([3]; read-out: Kd): 5260 nM | Kd ([5]; read-out: Kd): 1250 nM | Activity [6]: inactive | Kd [7]: Not Active

C=CCc1ccc(O)c(-c2cc(CC=C)ccc2O)c1 [MAGNOLOL]
Kd [1]: Not Active | Kd ([3]; sf9): Not Active | Kd ([5]; sf9): Not Active | Activity [6]: inactive | Kd [7]: Not Active

COc1cc(CCCO)cc(-c2cc(CCCO)cc(OC)c2O)c1O
Kd ([1]; read-out: Kd): 18.5 nM | IC50 [2]: Not Active | Kd ([3]; sf9): Not Active | Activity [4]: 20 - 30% | Kd ([5]; sf9): Not Active | Activity [6]: inactive | Kd [7]: Not Active

Oc1nc(-c2ccc(C(F)(F)F)cc2)nc2c1CSCC2
IC50 [8]: 12300 nM

C=CCc1cc(O)c(O)c(-c2cc(CC=C)cc(OC)c2O)c1
Kd ([1]; read-out: Kd): 21 nM | IC50 [8]: 4700 nM | Kd ([3]; read-out: Kd): 520 nM | Kd ([5]; sf9): Not Active | Activity [6]: inactive | Kd [7]: Not Active

From ChEMBL document CHEMBL4229413, “Identification by Inverse Virtual Screening of magnolol-based scaffold as new tankyrase-2 inhibitors” (Bioorg Med Chem, 2018)
